Counter-ions that a name gives are not always drawn.

Assay [1] deals with PI3Kδ (p110δ/p85α) Recombinant Human Protein (Homo sapiens (Human), UniProt O00329). Description: PI3Kδ Scintillation Proximity Assay. Format: biochemical. The method in brief: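 IC50 was fitted to percent solvent-control activity from SPA scintillation counts after WGA bead capture of 33P-labelled lipid product. Reaction: 120 min, room temperature, 3.4 nM p110δ/p85α, 20 μM PIP2, 2 μM ATP with tracer, MOPS pH 6.7 buffer containing MgCl2, DTT, CHAPS, 2% DMSO.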
A general note: In a scintillation proximity assay essentially only radioactivity close to the scintillant gives light.

The target of assay [2] is PI3Kγ (p110γ) Recombinant Human Protein (Homo sapiens (Human), UniProt P48736). Nature of the assay: PI3K-γ Scintillation Proximity Assay. Format: biochemical. The following applies: read-out: PI3Kγ IC50. The procedure, abridged: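 Radiometric SPA readout: […] bound to WGA beads after overnight shaking, IC50 derived from % activity of DMSO control. Reaction used human p110γ, 2 μM ATP, 20 μM PIP2, pH 6.7 MOPS buffer with MgCl2, DTT, CHAPS, 2% DMSO, room temperature.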
PI3Kγ (p110γ) Recombinant Human Protein, sequence (P48736 whole entry): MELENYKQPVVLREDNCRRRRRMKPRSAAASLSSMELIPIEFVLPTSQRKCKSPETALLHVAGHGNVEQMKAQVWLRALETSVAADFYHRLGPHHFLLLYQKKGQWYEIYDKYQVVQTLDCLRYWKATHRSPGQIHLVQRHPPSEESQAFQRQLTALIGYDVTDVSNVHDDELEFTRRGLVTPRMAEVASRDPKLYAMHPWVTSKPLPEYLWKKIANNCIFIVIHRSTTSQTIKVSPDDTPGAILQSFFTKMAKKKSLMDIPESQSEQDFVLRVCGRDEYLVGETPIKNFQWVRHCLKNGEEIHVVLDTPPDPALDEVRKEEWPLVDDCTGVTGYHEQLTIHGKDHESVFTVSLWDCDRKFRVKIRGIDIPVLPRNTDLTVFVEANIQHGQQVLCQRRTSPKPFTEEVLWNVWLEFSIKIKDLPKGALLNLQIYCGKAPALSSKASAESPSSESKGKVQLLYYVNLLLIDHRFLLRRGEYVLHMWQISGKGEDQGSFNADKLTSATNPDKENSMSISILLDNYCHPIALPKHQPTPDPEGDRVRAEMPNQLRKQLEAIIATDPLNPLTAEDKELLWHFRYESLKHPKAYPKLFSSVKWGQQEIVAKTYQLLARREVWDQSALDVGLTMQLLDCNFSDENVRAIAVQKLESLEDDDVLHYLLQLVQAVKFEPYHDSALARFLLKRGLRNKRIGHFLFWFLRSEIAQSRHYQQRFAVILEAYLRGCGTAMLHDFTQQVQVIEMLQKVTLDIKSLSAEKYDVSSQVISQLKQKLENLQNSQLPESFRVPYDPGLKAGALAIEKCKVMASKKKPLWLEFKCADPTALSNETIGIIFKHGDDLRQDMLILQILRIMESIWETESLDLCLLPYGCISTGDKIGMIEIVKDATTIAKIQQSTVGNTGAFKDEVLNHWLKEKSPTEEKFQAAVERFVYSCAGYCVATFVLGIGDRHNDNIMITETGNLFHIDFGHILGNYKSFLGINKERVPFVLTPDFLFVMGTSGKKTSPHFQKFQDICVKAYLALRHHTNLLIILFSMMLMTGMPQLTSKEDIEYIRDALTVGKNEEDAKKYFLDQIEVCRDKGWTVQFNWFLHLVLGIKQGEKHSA

PI3Kδ (p110δ/p85α) Recombinant Human Protein, sequence (O00329 whole entry): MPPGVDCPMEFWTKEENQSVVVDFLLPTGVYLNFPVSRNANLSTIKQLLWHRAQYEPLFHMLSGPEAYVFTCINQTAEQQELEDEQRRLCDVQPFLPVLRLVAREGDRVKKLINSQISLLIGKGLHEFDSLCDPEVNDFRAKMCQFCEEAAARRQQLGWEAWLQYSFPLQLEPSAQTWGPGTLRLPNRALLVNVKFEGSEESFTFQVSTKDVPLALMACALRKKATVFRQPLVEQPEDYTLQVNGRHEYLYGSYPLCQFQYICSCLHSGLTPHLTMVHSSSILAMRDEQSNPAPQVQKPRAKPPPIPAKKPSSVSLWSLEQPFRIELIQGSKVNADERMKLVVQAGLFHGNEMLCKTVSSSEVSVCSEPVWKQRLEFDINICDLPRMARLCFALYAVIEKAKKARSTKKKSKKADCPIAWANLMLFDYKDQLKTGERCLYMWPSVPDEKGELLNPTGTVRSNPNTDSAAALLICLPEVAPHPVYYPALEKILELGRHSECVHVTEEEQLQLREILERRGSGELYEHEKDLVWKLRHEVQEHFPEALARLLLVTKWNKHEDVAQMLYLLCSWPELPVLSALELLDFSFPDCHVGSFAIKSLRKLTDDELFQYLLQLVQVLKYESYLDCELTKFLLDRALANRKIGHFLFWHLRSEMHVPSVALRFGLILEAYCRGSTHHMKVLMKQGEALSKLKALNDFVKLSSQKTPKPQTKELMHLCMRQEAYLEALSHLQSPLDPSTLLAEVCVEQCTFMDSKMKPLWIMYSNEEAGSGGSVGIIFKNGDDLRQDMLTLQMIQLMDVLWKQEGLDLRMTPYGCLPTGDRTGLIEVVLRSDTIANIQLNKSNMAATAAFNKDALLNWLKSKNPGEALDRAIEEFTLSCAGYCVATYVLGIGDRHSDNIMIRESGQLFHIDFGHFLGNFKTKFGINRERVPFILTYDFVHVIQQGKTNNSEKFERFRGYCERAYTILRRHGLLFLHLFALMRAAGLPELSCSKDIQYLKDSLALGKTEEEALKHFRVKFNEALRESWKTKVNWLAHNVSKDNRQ
PI3Kδ (p110δ/p85α) Recombinant Human Protein, sequence (P27986 whole entry partner): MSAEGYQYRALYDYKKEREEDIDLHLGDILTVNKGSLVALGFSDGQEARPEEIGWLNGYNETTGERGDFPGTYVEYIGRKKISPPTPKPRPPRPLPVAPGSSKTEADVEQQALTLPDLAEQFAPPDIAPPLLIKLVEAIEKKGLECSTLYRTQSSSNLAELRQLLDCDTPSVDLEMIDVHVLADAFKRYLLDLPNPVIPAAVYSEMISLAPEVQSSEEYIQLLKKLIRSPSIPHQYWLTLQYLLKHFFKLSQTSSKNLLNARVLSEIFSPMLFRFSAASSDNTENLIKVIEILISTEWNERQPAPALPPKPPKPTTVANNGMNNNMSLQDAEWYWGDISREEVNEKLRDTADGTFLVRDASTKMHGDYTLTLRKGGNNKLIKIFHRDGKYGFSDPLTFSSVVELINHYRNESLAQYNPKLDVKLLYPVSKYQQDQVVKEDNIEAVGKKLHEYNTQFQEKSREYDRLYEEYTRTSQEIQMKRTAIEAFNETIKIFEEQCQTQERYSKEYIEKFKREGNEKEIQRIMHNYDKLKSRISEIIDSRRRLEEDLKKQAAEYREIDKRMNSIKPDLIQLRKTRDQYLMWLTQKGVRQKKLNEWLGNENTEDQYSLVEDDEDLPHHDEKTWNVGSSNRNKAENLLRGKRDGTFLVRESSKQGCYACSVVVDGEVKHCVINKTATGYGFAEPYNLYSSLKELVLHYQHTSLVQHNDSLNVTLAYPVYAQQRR

Usually IC50 stands for the concentration that inhibits the measured activity by half. On to `Cc1cc(C)c(S(=O)(=O)NCC(C)(C)O)cc1-c1cnc2c(N)nccn12` [Example 361, 5-(8-aminoimidazo[1,2-a]pyrazin-3-yl)-N-(2-hydroxy-2-methylpropyl)-2,4-dimethylbenzenesulfonamide], for which the IC50 in assay [1] and in assay [2] was 100 to 500 nM each time.
Turning to `Nc1ncnn2c(-c3ccc(F)c(S(=O)(=O)NC45CCC(CO)(C4)C5)c3)cnc12` [Example 366, 5-(4-Aminoimidazo[1,2-f][1,2,4]triazin-7-yl)-2-fluoro-N-(4-(hydroxymethyl)bicyclo[2.1.1]hexan-1-yl)benzenesulfonamide trifluoroacetate salt], the half-maximal inhibitory concentration (IC50) in assay [1] is 100 to 500 nM; in assay [2], less than 100 nM.
For the molecule `Nc1ncnn2c(-c3cccc(S(=O)(=O)NC45CCC(CO)(C4)C5)c3)cnc12` [Example 368, 3-(4-Aminoimidazo[1,2-f][1,2,4]triazin-7-yl)-N-(4-(hydroxymethyl)bicyclo[2.1.1]hexan-1-yl)benzenesulfonamide trifluoroacetate salt], the figures for the concentration for half-maximal inhibition (IC50) in assay [1] and in assay [2] were 100 to 500 nM and less than 100 nM, respectively.
The matching figures for `Cc1ccc(-c2cnc3c(N)ncnn23)cc1S(=O)(=O)NC12CCC(C#N)(C1)C2` [Example 369, 5-(4-Aminoimidazo[1,2-f][1,2,4]triazin-7-yl)-N-(4-cyanobicyclo[2.1.1]hexan-1-yl)-2-methylbenzenesulfonamide trifluoroacetate salt]: 100 to 500 nM and less than 100 nM.
In the case of `Cc1ccc(S(=O)(=O)N[C@H]2C[C@H](C#N)C2)cc1-c1cnc2c(N)ncnn12` [Example 370, 3-(4-Aminoimidazo[2,1-f][1,2,4]triazin-7-yl)-N-((1r,3r)-3-cyanocyclobutyl)-4-(methyl-d3)benzenesulfonamide trifluoroacetate salt], the IC50 in assay [1] is 100 to 500 nM; in assay [2], less than 100 nM.
In the same order, the values of `COc1ccc(S(=O)(=O)NC23CCC(C#N)(C2)C3)cc1-c1cnc2c(N)ncnn12` [Example 372, 3-(4-Aminoimidazo[1,2-f][1,2,4]triazin-7-yl)-N-(4-cyanobicyclo[2.1.1]hexan-1-yl)-4-methoxybenzenesulfonamide trifluoroacetate salt] are 500 to 2000 nM and less than 100 nM.
The matching figures for `N#CC12CCC(NS(=O)(=O)c3ccc(OC(F)(F)F)c(-c4cnc5c(N)ncnn45)c3)(C1)C2` [Example 373, 3-(4-Aminoimidazo[1,2-f][1,2,4]triazin-7-yl)-N-(4-cyanobicyclo[2.1.1]hexan-1-yl)-4-(trifluoromethoxy)benzenesulfonamide trifluoroacetate salt]: 500 to 2000 nM and 500 to 2000 nM.
In the same order, the values of `Cc1cn2c(-c3ccc(F)c(S(=O)(=O)NC45CC(C#N)(C4)C5)c3)cnc2c(N)n1` [Example 382, 5-(8-Amino-6-methylimidazo[1,2-a]pyrazin-3-yl)-N-(3-cyanobicyclo[1.1.1]pentan-1-yl)-2-fluorobenzenesulfonamide trifluoroacetate salt] are 500 to 2000 nM and 100 to 500 nM.
Take `N#Cc1ccc(S(=O)(=O)NC23CCC(CO)(C2)C3)cc1-c1cnc2c(N)nc(C(F)(F)F)cn12` [Example 401, 3-(8-Amino-6-(trifluoromethyl)imidazo[1,2-a]pyrazin-3-yl)-4-cyano-N-(4-(hydroxymethyl)bicyclo[2.1.1]hexan-1-yl)benzenesulfonamide trifluoroacetate salt]: the values for the IC50 in assay [1] and in assay [2] were more than 2000 nM and less than 100 nM, respectively.
For the molecule `CC(C)(O)CNS(=O)(=O)c1ccc(C(F)(F)F)c(-c2cnc3c(N)nc(C(F)(F)F)cn23)c1` [Example 407, 3-(8-amino-6-(trifluoromethyl)imidazo[1,2-a]pyrazin-3-yl)-N-(2-hydroxy-2-methylpropyl)-4-(trifluoromethyl)benzenesulfonamide], the concentration for half-maximal inhibition (IC50) is more than 2000 nM in assay [1] and 500 to 2000 nM in assay [2].
Turning to `CCN(CC)CCCCNC(=O)c1cn2c(-c3cc(S(C)(=O)=O)ccc3C)cnc2c(N)n1` [Example 452, 8-Amino-N-(4-(diethylamino)butyl)-3-(2-methyl-5-(methylsulfonyl)phenyl)imidazo[1,2-a]pyrazine-6-carboxamide trifluoroacetate salt], the half-maximal inhibitory concentration (IC50) was 100 to 500 nM in assay [1] and more than 2000 nM in assay [2].
The matching figures for `Cc1ccc(S(C)(=O)=O)cc1-c1cnc2c(N)nc(C(=O)NCCc3cnn(C)c3)cn12` [Example 453, 8-amino-N-(2-(1-methyl-1H-pyrazol-4-yl)ethyl)-3-(2-methyl-5-(methylsulfonyl)phenyl)imidazo[1,2-a]pyrazine-6-carboxamide trifluoroacetate salt]: 100 to 500 nM and 100 to 500 nM.
The matching figures for `Cc1ccc(S(C)(=O)=O)cc1-c1cnc2c(N)nc(C(=O)Nc3cc(-c4ccco4)[nH]n3)cn12` [Example 454, 8-amino-N-(5-(furan-2-yl)-1H-pyrazol-3-yl)-3-(2-methyl-5-(methylsulfonyl)phenyl)imidazo[1,2-a]pyrazine-6-carboxamide trifluoroacetate salt]: 500 to 2000 nM and 100 to 500 nM.
The matching figures for `Cc1ccc(S(C)(=O)=O)cc1-c1cnc2c(N)nc(C(=O)Nc3ccc(N4CCN(C)CC4)cn3)cn12` [Example 455, 8-amino-3-(2-methyl-5-(methylsulfonyl)phenyl)-N-(5-(4-methylpiperazin-1-yl)pyridin-2-yl)imidazo[1,2-a]pyrazine-6-carboxamide trifluoroacetate salt]: 500 to 2000 nM and 500 to 2000 nM.
Consider `Cc1ccc(S(C)(=O)=O)cc1-c1cnc2c(N)nc(C(=O)NCCCn3cccn3)cn12` [Example 457, N-(3-(1H-pyrazol-1-yl)propyl)-8-amino-3-(2-methyl-5-(methylsulfonyl)phenyl)imidazo[1,2-a]pyrazine-6-carboxamide trifluoroacetate salt], for which the IC50 in assay [1] and in assay [2] was 100 to 500 nM in each case.
`COCCN1CCCC(NC(=O)c2cn3c(-c4cc(S(C)(=O)=O)ccc4C)cnc3c(N)n2)C1` (centres unmarked) [Example 458, 8-Amino-N-(1-(2-methoxyethyl)piperidin-3-yl)-3-(2-methyl-5-(methylsulfonyl)phenyl)imidazo[1,2-a]pyrazine-6-carboxamide trifluoroacetate salt]: the half-inhibitory concentration (IC50) in assay [1] was more than 2000 nM; in assay [2], 500 to 2000 nM.
The matching figures for `Cc1ccc(S(C)(=O)=O)cc1-c1cnc2c(N)nc(C(=O)NC3CCCN(CC#N)C3)cn12` (centres unmarked) [Example 459, 8-Amino-N-(1-(cyanomethyl)piperidin-3-yl)-3-(2-methyl-5-(methylsulfonyl)phenyl)imidazo[1,2-a]pyrazine-6-carboxamide trifluoroacetate salt]: more than 2000 nM and 100 to 500 nM.
In the same order, the values of `COC(=O)N1CCCC(NC(=O)c2cn3c(-c4cc(S(C)(=O)=O)ccc4C)cnc3c(N)n2)C1` (centres unmarked) [Example 461, Methyl 3-(8-amino-3-(2-methyl-5-(methylsulfonyl)phenyl)imidazo[1,2-a]pyrazine-6-carboxamido)piperidine-1-carboxylate trifluoroacetate salt] are 500 to 2000 nM and 100 to 500 nM.
The matching figures for `Cc1ccc(S(C)(=O)=O)cc1-c1cnc2c(N)nc(C(=O)NC3CCCN(S(C)(=O)=O)C3)cn12` (centres unmarked) [Example 462, 8-Amino-3-(2-methyl-5-(methylsulfonyl)phenyl)-N-(1-(methylsulfonyl)piperidin-3-yl)imidazo[1,2-a]pyrazine-6-carboxamide trifluoroacetate salt]: 500 to 2000 nM and less than 100 nM.

(Values after US10479795B2 (Incyte Corporation, priority 2016, dated 2019).)
